{"source": "ChEMBL document CHEMBL1275354", "about": "“Anticonvulsant activity of 2,4(1H)-diarylimidazoles in mice and rats acute seizure models” (Bioorg Med Chem, 2010)", "key": {"Mus musculus [1]": {"test_system": "Mus musculus", "assay": "Anticonvulsant activity in albino CF1 mouse assessed as protection against maximal electroshock-induced seizures at 30 mg/kg, ip after 4 hrs", "format": "functional, organism-based", "design": "dose 30 mg/kg"}, "Mus musculus [2]": {"test_system": "Mus musculus", "assay": "Anticonvulsant activity in albino CF1 mouse assessed as protection against subcutaneous metrazole-induced seizures at 30 mg/kg, ip after 0.5 hrs", "format": "functional, organism-based", "design": "dose 30 mg/kg"}, "Mus musculus [3]": {"test_system": "Mus musculus", "assay": "Anticonvulsant activity in albino CF1 mouse assessed as protection against maximal electroshock-induced seizures at 30 mg/kg, ip after 0.5 hrs", "format": "functional, organism-based", "design": "dose 30 mg/kg"}, "Mus musculus [4]": {"test_system": "Mus musculus", "assay": "Anticonvulsant activity against subcutaneous metrazole-induced seizures in ip dosed albino CF1 mouse assessed as minimum effective dose after 4 hrs", "format": "functional", "details": "albino CF1, 4 h, read-out: MED"}, "Mus musculus [5]": {"test_system": "Mus musculus", "assay": "Anticonvulsant activity in albino CF1 mouse assessed as protection against subcutaneous metrazole-induced seizures at 300 mg/kg, ip after 0.5 hrs", "format": "functional, organism-based", "design": "dose 300 mg/kg"}, "Mus musculus [6]": {"test_system": "Mus musculus", "assay": "Anticonvulsant activity in albino CF1 mouse assessed as protection against subcutaneous metrazole-induced seizures at 30 mg/kg, ip after 4 hrs", "format": "functional, organism-based", "design": "dose 30 mg/kg"}, "Mus musculus [7]": {"test_system": "Mus musculus", "assay": "Neurotoxicity in albino CF1 mouse assessed as minimal motor impairment at 30 to 300 mg/kg, ip after 4 hrs by rotarod test", "details": "in vivo"}, "Mus musculus [8]": {"test_system": "Mus musculus", "assay": "Neurotoxicity in albino CF1 mouse assessed as minimal motor impairment at 30 mg/kg, ip after 4 hrs by rotarod test", "format": "toxicity, organism-based", "design": "dose 30 mg/kg, route intraperitoneal", "details": "in vivo"}, "Mus musculus [9]": {"test_system": "Mus musculus", "assay": "Anticonvulsant activity against maximal electroshock-induced seizures in ip dosed albino CF1 mouse assessed as minimum effective dose after 4 hrs", "format": "functional", "details": "read-out: MED"}, "Mus musculus [10]": {"test_system": "Mus musculus", "assay": "Anticonvulsant activity in albino CF1 mouse assessed as protection against subcutaneous metrazole-induced seizures at 100 mg/kg, ip after 0.5 hrs", "format": "functional, organism-based", "design": "dose 100 mg/kg"}, "Mus musculus [11]": {"test_system": "Mus musculus", "assay": "Anticonvulsant activity against maximal electroshock-induced seizures in ip dosed albino CF1 mouse assessed as minimum effective dose after 0.5 hrs", "format": "functional", "details": "read-out: MED"}, "Mus musculus [12]": {"test_system": "Mus musculus", "assay": "Anticonvulsant activity in albino CF1 mouse assessed as protection against maximal electroshock-induced seizures at 3 mg/kg, ip after 0.5 hrs", "format": "functional, organism-based", "design": "dose 3 mg/kg"}, "Mus musculus [13]": {"test_system": "Mus musculus", "assay": "Anticonvulsant activity in albino CF1 mouse assessed as protection against maximal electroshock-induced seizures at 10 mg/kg, ip after 0.5 hrs", "format": "functional, organism-based", "design": "dose 10 mg/kg"}, "Mus musculus [14]": {"test_system": "Mus musculus", "assay": "Neurotoxicity in albino CF1 mouse assessed as minimal motor impairment at 30 to 300 mg/kg, ip after 0.5 hrs by rotarod test", "details": "in vivo"}, "Mus musculus [15]": {"test_system": "Mus musculus", "assay": "Anticonvulsant activity in albino CF1 mouse assessed as protection against maximal electroshock-induced seizures at 300 mg/kg, ip after 4 hrs", "format": "functional, organism-based", "design": "dose 300 mg/kg"}, "Mus musculus [16]": {"test_system": "Mus musculus", "assay": "Anticonvulsant activity against subcutaneous metrazole-induced seizures in ip dosed albino CF1 mouse assessed as minimum effective dose after 0.5 hrs", "format": "functional", "details": "albino CF1, 0.5 h, read-out: MED"}, "Mus musculus [17]": {"test_system": "Mus musculus", "assay": "Anticonvulsant activity in albino CF1 mouse assessed as protection against maximal electroshock-induced seizures at 300 mg/kg, ip after 0.5 hrs", "format": "functional, organism-based", "design": "dose 300 mg/kg"}, "Mus musculus [18]": {"test_system": "Mus musculus", "assay": "Neurotoxicity in albino CF1 mouse assessed as minimal motor impairment at 10 mg/kg, ip after 0.5 hrs by rotarod test", "format": "toxicity, organism-based", "design": "dose 10 mg/kg, route intraperitoneal", "details": "in vivo"}, "Mus musculus [19]": {"test_system": "Mus musculus", "assay": "Anticonvulsant activity in albino CF1 mouse assessed as protection against subcutaneous metrazole-induced seizures at 100 mg/kg, ip after 4 hrs", "format": "functional, organism-based", "design": "dose 100 mg/kg"}, "Mus musculus [20]": {"test_system": "Mus musculus", "assay": "Neurotoxicity in albino CF1 mouse assessed as minimal motor impairment at 30 mg/kg, ip after 0.5 hrs by rotarod test", "format": "toxicity, organism-based", "design": "dose 30 mg/kg, route intraperitoneal", "details": "in vivo"}, "Mus musculus [21]": {"test_system": "Mus musculus", "assay": "Neurotoxicity in ip dosed albino CF1 mouse assessed as minimum dose required to cause toxicity after 0.5 hrs by rotarod test", "format": "organism-based", "details": "in vivo"}, "Mus musculus [22]": {"test_system": "Mus musculus", "assay": "Anticonvulsant activity in albino CF1 mouse assessed as protection against subcutaneous metrazole-induced seizures at 300 mg/kg, ip after 4 hrs", "format": "functional, organism-based", "design": "dose 300 mg/kg"}, "Mus musculus [23]": {"test_system": "Mus musculus", "assay": "Neurotoxicity in albino CF1 mouse assessed as minimal motor impairment at 100 mg/kg, ip after 4 hrs by rotarod test", "format": "toxicity, organism-based", "design": "dose 100 mg/kg, route intraperitoneal", "details": "in vivo"}, "Mus musculus [24]": {"test_system": "Mus musculus", "assay": "Neurotoxicity in ip dosed albino CF1 mouse assessed as minimum dose required to cause toxicity after 4 hrs by rotarod test", "format": "organism-based", "details": "in vivo"}, "Mus musculus [25]": {"test_system": "Mus musculus", "assay": "Neurotoxicity in albino CF1 mouse assessed as minimal motor impairment at 3 mg/kg, ip after 0.5 hrs by rotarod test", "format": "toxicity, organism-based", "design": "dose 3 mg/kg, route intraperitoneal", "details": "in vivo"}}, "note": "Active and inactive are the calls of the source. The calls are words filed in the database; no cut-off is given here."}
{"smiles": "FC(F)(F)c1cccc(-c2c[nH]c(-c3ccccc3)n2)c1", "values": [{"measurement": "Activity", "setting": "Mus musculus [1]", "result": "inactive"}, {"measurement": "Activity", "setting": "Mus musculus [2]", "result": "inactive"}, {"measurement": "Activity", "setting": "Mus musculus [3]", "result": "Active"}, {"measurement": "minimal effective dose", "setting": "Mus musculus [4]", "result": "> 300", "unit": "mg/kg"}, {"measurement": "Activity", "setting": "Mus musculus [5]", "result": "inactive"}, {"measurement": "Activity", "setting": "Mus musculus [6]", "result": "inactive"}, {"measurement": "Activity", "setting": "Mus musculus [7]", "result": "Non-toxic"}, {"measurement": "Activity", "setting": "Mus musculus [8]", "result": "Non-toxic"}, {"measurement": "minimal effective dose", "setting": "Mus musculus [9]", "result": 100, "unit": "mg/kg"}, {"measurement": "Activity", "setting": "Mus musculus [10]", "result": "inactive"}, {"measurement": "minimal effective dose", "setting": "Mus musculus [11]", "result": "> 30", "unit": "mg/kg"}, {"measurement": "Activity", "setting": "Mus musculus [12]", "result": "inactive"}, {"measurement": "Activity", "setting": "Mus musculus [13]", "result": "inactive"}, {"measurement": "Activity", "setting": "Mus musculus [14]", "result": "Non-toxic"}, {"measurement": "Activity", "setting": "Mus musculus [15]", "result": "Active"}, {"measurement": "minimal effective dose", "setting": "Mus musculus [16]", "result": "> 300", "unit": "mg/kg"}, {"measurement": "Activity", "setting": "Mus musculus [17]", "result": "Active"}, {"measurement": "Activity", "setting": "Mus musculus [18]", "result": "Non-toxic"}, {"measurement": "Activity", "setting": "Mus musculus [19]", "result": "inactive"}, {"measurement": "Activity", "setting": "Mus musculus [20]", "result": "Non-toxic"}, {"measurement": "MED", "setting": "Mus musculus [21]", "result": 100, "unit": "mg/kg"}, {"measurement": "Activity", "setting": "Mus musculus [22]", "result": "inactive"}, {"measurement": "Activity", "setting": "Mus musculus [23]", "result": "Non-toxic"}, {"measurement": "MED", "setting": "Mus musculus [24]", "result": 100, "unit": "mg/kg"}, {"measurement": "Activity", "setting": "Mus musculus [25]", "result": "Non-toxic"}]}
